{"source": "patent US5965088A", "about": "“Method for providing rapid disinfection of contact lenses” (priority 1997, dated 1999)", "test_system": "Pseudomonas aeruginosa (ATCC 9027)", "assay": "Antimicrobial efficacy (stand-alone log reduction), P. aeruginosa", "assay_type": "cell-based", "conditions": "for log reduction at 4 µg/mL: 4.0 ppm alexidine in ReNu MPS", "method": "This Example illustrates the microbiocidal efficacy of solutions according to the present invention. The antimicrobial efficacy of each of various compositions for the chemical disinfection of contact lenses was evaluated. Microbial challenge inoculums were prepared using Pseudomonas aeruginosa (ATCC 9027), Staphylococcus aureus (ATCC 6538), Serratia marcescens (ATCC 13880), Candida albicans (ATCC 10231), and Fusarium solani (ATCC 36031). The test organisms were cultured on appropriate agar and the cultures were harvested using sterile DPBST (Dulbecco's Phosphate Buffered Saline plus 0.05% w/v polysorbate 80) or a suitable diluent and transferred to a suitable vessel. Spore suspensions were filtered through sterile glass wool to remove hyphal fragments. Serratia marcescens, as appropriate, was filtered (eg., through a 1.2 μ filter) to clarify the suspension. After harvesting, the suspension was centrifuged at no more than 5000× g for a maximum of 30 minutes at 20-25° C. The supernatant was poured off and resuspended in DPBST or other suitable diluent. The suspension was centrifuged a second time, and resuspended in DPBST or other suitable diluent. All challenge bacterial and fungal cell suspensions were adjusted with DPBST or other suitable diluent to 1×10^7 -10^8 cfu/mL. The appropriate cell concentration may be estimated by measuring the turbidity of the suspension, for example using a spectrophotometer at a preselected wavelength, for example 490 nm. One tube was prepared containing a minimum of 10 mL of test solution per challenge organism. Each tube of the solution to be tested was inoculated with a suspension of the test organism sufficient to provide a final count of 1.0×10^5 -10^6 cfu/mL, the volume of the inoculum not exceeding 1% of the sample volume. Dispersion of the inoculum was ensured by vortexing the sample for at least 15 seconds. The inoculated product was stored at 10-25° C. Aliquots in the amount of 1.0 mL were taken of the inoculated product for determination of viable counts after certain time periods of disinfection. The time points for the bacteria were 25, 50, 75, and 100% of the minimum disinfection time. Yeast and mold were tested at an additional timepoint of at least 400% of the minimum disinfection time. The suspension was mixed well by vortexing vigorously for at least 5 second. The 1.0 mL aliquots removed at the specified time intervals were subjected to a suitable series of decimal dilutions in validated neutralizing media. The suspensions were mixed vigorously and incubated for a suitable period of time to allow for neutralization of the microbial agent. The viable count of organisms was determined in appropriate dilutions by preparation of triplicate plates of trypticase soy (TSA) agar for bacteria and Sabouraud dextrose agar (SDA) for mold and yeast. The bacterial recovery plates were incubated at 30-35° C. for 2-4 days. The yeast was incubated at 20-30° C. for 2-4 days and mold recovery plates at 20-25° C. for 3-7 days. The average number of colony forming units was determined on countable plates. Countable plates refer to 30-300 cfu/plates for bacteria and yeast, and 8 to 80 cfu/plate for mold except when colonies are observed only for the 10^0 or 10^-1 dilution plates. The microbial reduction was then calculated at the specified time points. […] Following inoculation in a validated neutralizing broth and incubation for an appropriate period of time, the inoculum control must be between 1.0×10^5 -1.0×10^6 cfu/mL\nThe solutions were evaluated based on the performance requirement referred to as the \"Stand-Alone Procedure for Disinfecting Products\" (hereafter the \"stand-alone test\") and is based on the Disinfection Efficacy Testing for contact lens care products under the Draft Premarket Notification (510(k)) Guidance Document For Contact Lens Care Products dated Apr. 1, 1996, prepared by the U.S. Food and Drug Administration, Division of Ophthalmic Devices. […]", "note": "Read-outs that look alike come from different tables or passages of the source.", "data": [{"smiles": "CCCCC(CC)CNC(=N)NC(=N)NCCCCCCNC(=N)NC(=N)NCC(CC)CCCC.Cl.Cl", "note": "(stereo not shown) [Alexidine.2HCl, 1,1 '-hexamethylenebis(5-(2-ethylhexyl)-biguanide) dihydrochloride]", "values": [{"measurement": "log reduction at 4 ppm", "setting": "ATCC9027, 2.5 min, 4.0 ppm, aged 18 months, Exp. 1, 2.5 min, read-out: Log Reduction", "result": 2.4}, {"measurement": "log reduction at 4 ppm", "setting": "ATCC9027, 2.5 min, 4.0 ppm, aged 18 months, Exp. 2, 2.5 min, read-out: Log Reduction", "result": 1.9}, {"measurement": "log reduction at 4 ppm", "setting": "ATCC9027, 2.5 min, 4.0 ppm, aged 18 months, Exp. 3, 2.5 min, read-out: Log Reduction", "result": 2.7}, {"measurement": "log reduction at 1 ppm", "setting": "ATCC9027, 5 min, 1.0 ppm, read-out: Log Reduction at 5 Minutes", "result": 0.5}, {"measurement": "log reduction at 2 ppm", "setting": "ATCC9027, 5 min, 2.0 ppm, read-out: Log Reduction at 5 Minutes", "result": 3}, {"measurement": "log reduction at 3 ppm", "setting": "ATCC9027, 5 min, 3.0 ppm, read-out: Log Reduction at 5 Minutes", "result": 3.8}, {"measurement": "log reduction at 4 ppm", "setting": "ATCC9027, 5 min, 4.0 ppm, aged 18 months, Exp. 1, 5.0 min, read-out: Log Reduction", "result": 3.2}, {"measurement": "log reduction at 4 ppm", "setting": "ATCC9027, 5 min, 4.0 ppm, aged 18 months, Exp. 2, 5.0 min, read-out: Log Reduction", "result": 3.2}, {"measurement": "log reduction at 4 ppm", "setting": "ATCC9027, 5 min, 4.0 ppm, aged 18 months, Exp. 3, 5.0 min, read-out: Log Reduction", "result": 3.1}, {"measurement": "log reduction at 4 ppm", "setting": "ATCC9027, 5 min, 4.0 ppm, read-out: Log Reduction at 5 Minutes", "result": 3.7}, {"measurement": "log reduction at 5 ppm", "setting": "ATCC9027, 5 min, 5.0 ppm, read-out: Log Reduction at 5 Minutes", "result": "> 5"}, {"measurement": "log reduction at 4 ppm", "setting": "ATCC9027, 0.125 h, 4.0 ppm, aged 18 months, Exp. 1, 7.5 min, read-out: Log Reduction", "result": 3.4}, {"measurement": "log reduction at 4 ppm", "setting": "ATCC9027, 0.125 h, 4.0 ppm, aged 18 months, Exp. 2, 7.5 min, read-out: Log Reduction", "result": 3.8}, {"measurement": "log reduction at 4 ppm", "setting": "ATCC9027, 0.125 h, 4.0 ppm, aged 18 months, Exp. 3, 7.5 min, read-out: Log Reduction", "result": 4.1}, {"measurement": "log reduction at 1 ppm", "setting": "ATCC9027, 10 min, 1.0 ppm, read-out: Log Reduction at 10 Minutes", "result": 3.2}, {"measurement": "log reduction at 2 ppm", "setting": "ATCC9027, 10 min, 2.0 ppm, read-out: Log Reduction at 10 Minutes", "result": 4.3}, {"measurement": "log reduction at 3 ppm", "setting": "ATCC9027, 10 min, 3.0 ppm, read-out: Log Reduction at 10 Minutes", "result": "> 5"}, {"measurement": "log reduction at 4 ppm", "setting": "ATCC9027, 10 min, 4.0 ppm, aged 18 months, Exp. 1, 10.0 min, read-out: Log Reduction", "result": "> 4.8"}, {"measurement": "log reduction at 4 ppm", "setting": "ATCC9027, 10 min, 4.0 ppm, aged 18 months, Exp. 2, 10.0 min, read-out: Log Reduction", "result": "> 4.8"}, {"measurement": "log reduction at 4 ppm", "setting": "ATCC9027, 10 min, 4.0 ppm, aged 18 months, Exp. 3, 10.0 min, read-out: Log Reduction", "result": 4.9}, {"measurement": "log reduction at 4 ppm", "setting": "ATCC9027, 10 min, 4.0 ppm, read-out: Log Reduction at 10 Minutes", "result": "> 5"}, {"measurement": "log reduction at 5 ppm", "setting": "ATCC9027, 10 min, 5.0 ppm, read-out: Log Reduction at 10 Minutes", "result": "> 5"}, {"measurement": "log reduction at 4 ppm", "setting": "ATCC9027, 0.25 h", "result": 4}, {"measurement": "log reduction at 4 ppm", "setting": "ATCC9027, 0.25 h, 4.0 ppm, Ex. 7, different lot aged 18 months, 15 min, read-out: Log Reduction", "result": 4.2}, {"measurement": "log reduction at 4 ppm", "setting": "ATCC9027, 0.25 h, 4.0 ppm, Ex. 8, different batch aged 19 months at 25 °C, 15 min, read-out: Log Reduction", "result": 3.3}, {"measurement": "log reduction at 4 ppm", "setting": "ATCC9027, 0.5 h, 4.0 ppm, Ex. 6, aged 19 months at 25 °C, 30 min, read-out: Log Reduction", "result": "> 4.8"}, {"measurement": "log reduction at 4 ppm", "setting": "ATCC9027, 0.5 h, 4.0 ppm, Ex. 7, different lot aged 18 months, 30 min, read-out: Log Reduction", "result": "> 4.8"}, {"measurement": "log reduction at 4 ppm", "setting": "ATCC9027, 0.5 h, 4.0 ppm, Ex. 8, different batch aged 19 months at 25 °C, 30 min, read-out: Log Reduction", "result": "> 4.8"}, {"measurement": "log reduction at 4 ppm", "setting": "ATCC9027, 0.75 h, 4.0 ppm, Ex. 6, aged 19 months at 25 °C, 45 min, read-out: Log Reduction", "result": "> 4.8"}, {"measurement": "log reduction at 4 ppm", "setting": "ATCC9027, 0.75 h, 4.0 ppm, Ex. 7, different lot aged 18 months, 45 min, read-out: Log Reduction", "result": "> 4.8"}, {"measurement": "log reduction at 4 ppm", "setting": "ATCC9027, 0.75 h, 4.0 ppm, Ex. 8, different batch aged 19 months at 25 °C, 45 min, read-out: Log Reduction", "result": "> 4.8"}, {"measurement": "log reduction at 1 ppm", "setting": "ATCC9027, 1 h, 1 ppm, 1 hr, read-out: Log Reduction", "result": "> 5"}, {"measurement": "log reduction at 2 ppm", "setting": "ATCC9027, 1 h, 2 ppm, 1 hr, read-out: Log Reduction", "result": "> 5"}, {"measurement": "log reduction at 3 ppm", "setting": "ATCC9027, 1 h, 3 ppm, 1 hr, read-out: Log Reduction", "result": "> 5"}, {"measurement": "log reduction at 4 µg/mL", "setting": "ATCC9027, 1 h, 1 hr", "result": "> 4.8"}, {"measurement": "log reduction at 4 ppm", "setting": "ATCC9027, 1 h, 4 ppm, 1 hr, read-out: Log Reduction", "result": "> 5"}, {"measurement": "log reduction at 4 ppm", "setting": "ATCC9027, 1 h, 4.0 ppm, Ex. 6, aged 19 months at 25 °C, 60 min, read-out: Log Reduction", "result": "> 4.8"}, {"measurement": "log reduction at 4 ppm", "setting": "ATCC9027, 1 h, 4.0 ppm, Ex. 7, different lot aged 18 months, 60 min, read-out: Log Reduction", "result": "> 4.8"}, {"measurement": "log reduction at 4 ppm", "setting": "ATCC9027, 1 h, 4.0 ppm, Ex. 8, different batch aged 19 months at 25 °C, 60 min, read-out: Log Reduction", "result": "> 4.8"}, {"measurement": "log reduction at 5 ppm", "setting": "ATCC9027, 1 h, 5 ppm, 1 hr, read-out: Log Reduction", "result": "> 5"}, {"measurement": "log reduction at 4 µg/mL", "setting": "ATCC9027, 2 h, 2 hr", "result": "> 4.8"}, {"measurement": "log reduction at 4 µg/mL", "setting": "ATCC9027, 3 h, 3 hr", "result": "> 4.8"}, {"measurement": "log reduction at 4 µg/mL", "setting": "ATCC9027, 4 h, 4 hr", "result": "> 4.8"}]}]}
